5 compounds from US20250255968A1, “INTRAVAGINAL DEVICES FOR DRUG DELIVERY” (priority 2011, published 2025) can be followed below.

Counter-ions that a name gives are not always drawn.

What all share (format): physicochemical
The nature of data set [1]: In vitro release of EVG, DPV and TFV from hydrophilic polyurethane tubing reservoir rings. Conditions: for TFV steady-state release rate: in presence of DPV or EVG. The text has this:
Elvitegravir (EVG), TFV, and glycerol (63/5/32 wt % TFV/EVG/glycerol-water, where glycerol was premixed as a 33/2 wt % stock solution) was loaded into the lumen of 35 wt % swelling hydrophilic polyurethane single-segment tubing with 5.5 mm cross-sectional diameter and 0.7 mm wall thickness. […] Similarly, dapivirine (DPV) was formulated in various equilibrium swelling hydrophilic polyurethane tubing lumens (all with 5.5 mm cross-sectional diameter and 0.7 mm wall thickness) at 63/5/32 wt % TFV/DPV/glycerol-water (mean±SD, N=5). […] Both DPV and EVG rings described above were tested for in vitro release immediately after ring fabrication. It is known from above examples, as well as previously published work that amphiphilic and lipophilic compounds including DPV often are soluble in polyurethanes up to 20 wt %. Therefore, a ring delivering hydrophobic APIs, such as EVG or DPV, should show little or no lag time in releasing the drug after adequate storage time, since the API should partition into the tubing wall on ring storage. TFV release from HTPU 35 and 60% swelling rings was not noticeably affected by the presence of DPV and EVG (TFV steady-state release rates were approximately 13 and 22 mg/day, respectively).

Data set [2] in a line: In vitro release of IQP-0528 from hydrophobic tubing IVR. The following applies: for 30 days; core 48 wt % drug/52 wt % glycerol in Tecoflex EG85A tubing preloaded with 4.7 wt % drug. The text has this:
An IVR as described in Examples 1, 2, 3, and 9 is manufactured by premixing hydrophobic small molecule API (such as IQP-0528, UC-781, or levonorgestrel) with non-swellable polymer (such as Tecoflex®) and titanium dioxide. The tubing is then extruded as described above using a single screw extruder and tubing crosshead. The tubing may or may not incorporate reinforced/braided tubing or metallic springs to mechanically support the wall. The tubing is then filled with the API and excipient(s) mixture and joined to make a ring as described above. […] The core is composed of 48 wt % drug and 52 wt % glycerol paste filled in a hydrophobic tubing (Tecoflex® EG85A) preloaded with 4.7 wt % drug. In this example, approximately 600 μg of IQP-0528 was released daily for 30 days.

The nature of data set [3]: TDF release from HydroThane IVR after storage at elevated temperature. As to the method: As a means of diminishing or eliminating API release lag-time, devices may be stored at elevated temperature ranging from 40° C. to 70° C., depending on drug stability, for a predetermined amount of time to accelerate diffusion of the API from the tubing lumen to the tubing wall. After a predetermined time/temperature storage, the API loading in the device wall be equilibrated and the device will show minimal or no lag-time in drug release. This approach works for APIs which show some solubility in the rate-controlling polymer. Also, in certain instances this approach may negate the need for an osmotic agent. […] The IVRs are incubated at elevated temperatures, for example 65° C. for 5 days. […] This minimal amount of TDF in tubing wall reduced the lag time for equilibrium drug release and about 2-3 mg of TDF was delivered on days 1-3.

The nature of data set [4]: In vitro TFV release from Tecophilic HP-60D-35 IVR with or without osmotic agent glycerol. The method, then: (§1) In vitro tenofovir (TFV) release and IVR mechanical studies were conducted to evaluate device performance. IVRs were incubated in pH 4.2 sodium acetate buffer and placed in a 37° C., 80 rpm shaker for up to 120 days. Sink conditions were maintained throughout the entire experiment, and release media was changed daily. Quantification of amount of TFV released was determined using high performance liquid chromatography (HPLC) (aqueous mobile phase gradient method on reverse phase C18 column, Agilent 1200 series HPLC). Mechanical properties of the rings over time were measured by compressing rings 25% of their initial outer diameter at a rate of 1 mm/sec using an Instron 3342 mechanical testing system (Norwood, MA) with custom machined aluminum probe. The TFV release rapidly attained steady-state, and release was dependent on polymer equilibrium swelling. The 35 wt % polymer was able to maintain steady-state release through 105 days. Also, the ring mechanical properties changed little with time, even after all drug was released. (See FIG. 2.)

Data set [5] is described as follows: In vitro drug release testing of dual-segment TFV/LNG IVR in aqueous buffer sink. The following applies: hydrophilic tubing reservoir segment of dual-segment IVR. As to the method:
Example 29B. In a further example, a TFV/glycerol/water (65/33/2 wt %) semi-solid paste was loaded into the hydrophilic tubing reservoir segment and LNG was dissolved in the hydrophobic solid core reservoir segment of a dual segment IVR made according to Example 29A (using similar polyurethane tubing). The resulting IVR was subjected to in vitro drug release testing in an aqueous buffer sink for 90 days.

A short description of data set [6]: In vitro tenofovir release from single-segment reservoir IVR (HPLC). The following applies: 35 wt % swelling Tecophilic HP-60D tubing IVR, TFV/glycerol 70/30 wt % core; pH 4.2 sodium acetate buffer, 37° C., 80 rpm. The method, then: as §1
Data set [7] can be described thus: In vitro TFV release from IVR with drug-impregnated polymeric core. Conditions: HPU 60/TFV (40% w/w) core jacketed with HPU 20/TFV (5% w/w); sodium acetate buffer pH 4.2, 37° C., 77 days, after initial burst. The text has this: The HPU 20/TFV was used to jacket HPU 60/TFV using a twin-screw extruder and crosshead die. Reservoir rods were cut to approximately 14 cm sections, of which the ends were joined using an O-ring butt-welding clamp and medical grade Tecoflex® 1-MP fast-crystallization polyurethane adhesive, (200-300 cps viscosity, solution of polyurethane based polymer in methyl ethyl ketone and methylene chloride) resulting in a ring with 50-60 mm outer diameter and 5-6 mm outer cross-sectional diameter. […] Several of these IVRs were incubated at 37° C. and in sodium acetate buffer (pH 4.2) for 77 days. Sink conditions were maintained throughout the entire experiment. […] (See FIG. 5.)

Regarding `Cc1cc(C)c(Nc2ccnc(Nc3ccc(C#N)cc3)n2)c(C)c1` [DPV, dapivirine], in data set [1] (various hydrophilic polyurethane rings, tested immediately after fabrication), the DPV lag time result is reported as “approximately two weeks”.
Take `COc1cc2c(cc1Cc1cccc(Cl)c1F)c(=O)c(C(=O)O)cn2[C@H](CO)C(C)C` [EVG, Elvitegravir]: the EVG release rate entry in data set [1] (for 28 days, unstored rings, 35 wt % swelling hydrophilic polyurethane tubing, 63/5/32 wt % TFV/EVG/glycerol-water) was “over 300 μg/day”. Also, the EVG lag time entry in data set [1] (unstored rings, 35 wt % swelling hydrophilic polyurethane tubing) is reported as “several-day lag time”.
With `Cc1cc(C)cc(C(=O)c2c(C(C)C)c(=O)[nH]c(=O)n2CC2CC2)c1` [IQP-0528], the IQP-0528 released daily result in data set [2] is listed as “approximately 600 μg”.
On to `CC(C)OC(=O)OCOP(=O)(CO[C@H](C)Cn1cnc2c(N)ncnc21)OCOC(=O)OC(C)C` [TDF, tenofovir disoproxil fumarate], for which, in data set [3] (HydroThane 25-93A IVR, TDF + sodium chloride (15 wt % of TDF), incubated 65° C. for 5 days), the “TDF concentration in tubing wall” value worked out at 5 mg/g polymer. Further, in data set [3] (on days 1-3, after 65° C. storage for 5 days), the TDF delivered lay in the range of 2 to 3 mg.
On to `C[C@H](Cn1cnc2c(N)ncnc21)OCP(=O)(O)O` [TFV, ({[(2R)-1-(6-amino-9H-purin-9-yl)propan-2-yl]oxy}methyl)phosphonic acid], for which the “time to steady state TFV release rate” value in data set [4] (65/33/2 wt % TFV/glycerol/water paste (glycerol 33 wt %)) is no more than 3 days; in data set [4] (100% TFV powder in the core), greater than 28 days. Further, in data set [5], the “lag period before zero-order TFV release” value was 1 days. For the same compound, the TFV release profile result was “Zero-order release” in data set [5] (TFV/glycerol/water 65/33/2 wt % paste, 90 days) and “zero-order fashion” in data set [7]. The “duration of maintained steady-state TFV release” value in data set [6] was determined as 105 days. Also, the “TFV steady-state release rate” value in data set [1] (HTPU 35% swelling rings) was “approximately 13 mg/day”; in data set [1] (HTPU 60% swelling rings), roughly 22 mg/day.
